Reference: patent US6552082B2, “Solution of N-[o-(p-pivaloyloxybenzenesulfonylamino)benzoyl] glycine monosodium salt tetra-hydrate and drug product thereof” (Ono Pharmaceutical Co., Ltd., priority 2000, dated 2003)

How the values were obtained:
elastase = target: T1, elastase (Homo sapiens, UniProt P08246); settings: background statement; cited from earlier work
T1 sequence (P08246 30-267): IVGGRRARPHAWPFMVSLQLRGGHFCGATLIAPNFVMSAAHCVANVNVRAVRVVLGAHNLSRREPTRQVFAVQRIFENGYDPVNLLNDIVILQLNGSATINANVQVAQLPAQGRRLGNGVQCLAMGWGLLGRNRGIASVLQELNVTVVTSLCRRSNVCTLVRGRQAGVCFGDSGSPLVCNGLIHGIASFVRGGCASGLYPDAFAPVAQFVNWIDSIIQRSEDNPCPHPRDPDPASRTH

[1] = amount of sodium hydroxide and stability in water/ethanol solution; assay type: physicochemical; settings: pH over 8.5
Experimental: To the mixture added water in order to fill up to 5 mL of total solution.

[2] = stability of the drug products (pH and residual rate of freeze-dried products); assay type: physicochemical
Experimental: (i) an aqueous solution of tri-sodium phosphate dodecahydrate (36.4 mg/mL; 50 mL),
(ii) an aqueous solution of potassium hydroxide (56 mg/mL 6 mL),
(iii) an aqueous solution of sodium hydroxide (40 mg/mL; 5.6 mL)
(a) when the aqueous solutions were prepared,
(b) when the prepared aqueous solutions were filled in each vial (5 mL), freeze-dried and then dissolved in water (10 mL),
(c) when the prepared aqueous solution was filled in each vial (5 mL), freeze-dried and the drug product was left at 60 degrees Centigrade for two weeks (in case of sodium hydroxide for one month) and dissolved in water (10 mL).

[3] = change of pH in the time course on freeze-dried product comprising sodium carbonate; assay type: physicochemical
Experimental: (a) when the aqueous solution was prepared,
(b) when the prepared aqueous solution was filled in each vial (5 mL), freeze-dried and then dissolved in water (10 mL),
(c) when the prepared aqueous solution was filled in each vial (5 mL), freeze-dried and the formulation obtained was left at 60 degrees Centigrade for two weeks and dissolved in water (10 mL).

[4] = investigation of pH adjusters: amount added, pH and clearness of suspension; assay type: physicochemical
Experimental: The present inventors have investigated the amounts of di-sodium hydrogen phosphate, tri-sodium phosphate, potassium hydroxide and sodium hydroxide to add and the changes in pH thereby.
Di-sodium hydrogen phosphate dodecahydrate (80 g) was added to water (200 mL) and dissolved by heating. To the above suspension under stirring with a stirrer was added the aqueous solution of Di-sodium hydrogen phosphate dodecahydrate by 5 mL each and the pH was measured.
To the suspension under stirring with a stirrer was added an aqueous solution of […] (4 g/100 mL) by 5 mL portion each and the pH was measured.
To the suspension under stirring with a stirrer was added 1N aqueous solution of potassium hydroxide (0.5 mL portion each) and the pH of the solution was measured.
To the suspension under stirring with a stirrer was added 1N aqueous solution of sodium hydroxide (1 mL portion each) and the pH was measured.

[5] = solubility of the compound (I) in normal solvents; assay type: physicochemical
[6] = investigation of a solution of high concentration; assay type: physicochemical; settings: 400 mg compound (I), 100 mg mannitol, 24 mg sodium hydroxide, water to 5 mL
Experimental: To the mixture under stirring, was added IN aqueous solution of sodium hydroxide (0.6 mL: corresponds to 24 mg). Thereto was added water in order to fill up to 5 mL of total amount. […] Therefore it was impossible to freeze-dry the suspension.

[7] = admixing with amino acid infusion as replacement of pH adjusters; assay type: physicochemical; settings: compound (I) 5 mg/mL admixed with KYORYOKU MORIAMINE infusion
[8] = formulation with sodium carbonate

residual rate of the compound (I) [1]: over 98%
solubility ([2]; aqueous buffer, solvent exclusively water, with pH adjuster, read-out: solubility of the above solution (water with pH adjuster)): ~20 mg/mL
residual rate of the compound (I) ([2]; freeze-dried product with sodium hydroxide, 60 degrees Centigrade, 1 month): 98.3%
pH (a) when the aqueous solution was prepared ([3]; formulation of JP kokai hei 5-194366 with sodium chloride and sodium carbonate): 7.80
pH (b) freeze-dried and then dissolved in water (10 mL) [3, 8]: 8.11
pH (c) freeze-dried, left at 60 degrees Centigrade for two weeks, dissolved in water (10 mL) [3, 8]: 8.44
residual rate of the compound (I) ([3]; freeze-dried product with sodium carbonate, 60 degrees Centigrade, two weeks): 91.4%
pH when the suspension turned into a clear aqueous solution ([4]; 5 mL of 1N potassium hydroxide added): 7.20
pH when the suspension turned into a clear aqueous solution ([4]; 7 mL of 1N sodium hydroxide added): 7.44
pH when the suspension turned into a clear aqueous solution ([4]; 45 mL of tri-sodium phosphate dodecahydrate solution added): 7.19
solubility ([5]; ethanol, organic solvent or mixture, read-out: solubility in ethanol): < 6 mg/mL
solubility ([5]; water, read-out: solubility in water): < 0.4 mg/mL
condition of the mixture (clear solution or not) ([6]; ethanol 1.0 mL): clear solution
pH after preparation [7]: 6.36
pH after twenty-four hours [7]: 6.13
residual rate of the compound (I) after twenty-four hours [7]: 54.1%
Compound: CC(C)(C)C(=O)Oc1ccc(S(=O)(=O)Nc2ccccc2C(=O)NCC(=O)[O-])cc1.[Na+] [compound (I), N-[o-(p-pivaloyloxybenzenesulfonylamino)benzoyl]glycine monosodium salt tetra-hydrate]
inhibitory activity against elastase (elastase): has an inhibitory activity against elastase
condition of the suspension (clear solution or not) ([4]; di-sodium hydrogen phosphate dodecahydrate solution 200 mL (80 g), pH 8.18): did not turn into a clear aqueous solution
condition of the mixture (clear solution or not) ([6]; no ethanol): did not turn into a clear solution but a white suspension
